The values below come from ChEMBL document CHEMBL1147278, “Pharmacologically Active Metabolites from Symbiotic Microalgae in Okinawan Marine Invertebrates” (J Nat Prod, 1989).

pIC50: −log10 of the molar value. Converted amounts (≈) assume the structure as drawn.

One may read the IC50 as the concentration needed to halve the response being measured. A high value points to weaker potency. The pIC50 is −log10 of the IC50, conventionally taken in molar units. Read a low pIC50 as a large IC50.

One test deals with L1210. Put plainly: Antitumor activity against mouse L1210 cells. The format is functional, cell-based.
`C=C1C/C=C/[C@H](O)[C@@H](O)C(=C)[C@@H](O)[C@H](O)C(=C)C/C=C/C(C)=C/C(=O)O[C@H]([C@@H]2O[C@H]2[C@@H](C)CCC)[C@@H](C)C1` [AMPHIDINOLIDE A] showed an IC50 of 2.4 µg/mL (≈ 4.52 µM).

The compound `C=C1/C=C(\C)[C@](C)(O)C[C@H](O)CC(=O)[C@H](O)[C@@H](O)[C@H](C)C[C@H](C)OC(=O)/C(C)=C/CC/C=C/[C@@H]2O[C@H]2C[C@H](C)C1` [AMPHIDINOLIDE B] showed an IC50 of 0.00014 µg/mL (≈ 0.000249 µM).

Compound `CCCCCCCCCCCCCC/C=C/C(O)C(=O)N[C@@H](CO)[C@H](O)CCCCCCCCCCCCCCC` (some centres undefined) [SYMBIORAMIDE] gave an IC50 of 9.5 µg/mL (≈ 16.3 µM).

On to `C=C1/C=C(\C)[C@](C)(O)C[C@H](O)CC(=O)[C@@H](O)[C@@H](O)[C@H](C)C[C@H](C)OC(=O)/C(C)=C/CC/C=C/[C@@H]2O[C@H]2C[C@H](C)C1` [AMPHIDINOLIDE D], for which the IC50 is 0.019 µg/mL (≈ 0.0338 µM).

As for `C=C1/C=C(\C)[C@@H](C)[C@@H](O)CC(=O)[C@@H](C)CC(=O)C[C@H]2CC[C@@H](O2)[C@H](/C=C/C=C(\C)[C@@H](O)C(=C)CCCC)OC(=O)C[C@@H]2O[C@H](C[C@H]2C)[C@H](O)[C@@H]1O` [AMPHIDINOLIDE C], the IC50 is 0.0058 µg/mL (≈ 0.00811 µM).

Target in a further test: not listed separately
Put plainly: Inhibition of sodium potassium ATPase activity.
Turning to `CC/C=C\C/C=C\C/C=C\C/C=C\CCCCC(=O)OCC(CO[C@@H]1O[C@H](CO[C@H]2O[C@H](CO)[C@H](O)[C@H](O)[C@H]2O)[C@H](O)[C@H](O)[C@H]1O)OC(=O)CCCC/C=C\C/C=C\C/C=C\C/C=C\CC` (some centres undefined), the pIC50 was 4.70.

In the case of `CC/C=C\C/C=C\C/C=C\C/C=C\CCCCC(=O)OCC(CO[C@@H]1O[C@H](CO)[C@H](O)[C@H](O)[C@H]1O)OC(=O)CCCC/C=C\C/C=C\C/C=C\C/C=C\CC` (some centres undefined), the pIC50 is 4.70.

Compound `CC/C=C\C/C=C\C/C=C\C/C=C\CCCCC(=O)OCC(O)CO[C@@H]1O[C@H](CO)[C@H](O)[C@H](O)[C@H]1O` (some centres undefined) showed a pIC50 of 4.70.

Tested on in the next test: not listed separately
Put plainly: Activation of calcium ATPase in sarcoplasmic reticulum at 100 uM.
With `CCCCCCCCCCCCCC/C=C/C(O)C(=O)N[C@@H](CO)[C@H](O)CCCCCCCCCCCCCCC` (some centres undefined) [SYMBIORAMIDE], the Activity amounted to 30%.
